US20260028364A1, “CATIONIC CHROMENONES AND THEIR USE IN ONCOLOGY” (FLORATEK PHARMA S.A., priority 2022, published 2026)
Each block holds one molecule with its values, some of them ahead of it.

Key:
Format in all cases: cell-based
Wnt/Beta-Catenin = assay: SelectScreen CellSensor pathway inhibition, Wnt/Beta-Catenin; settings: LEF-TCF-bla HCT116, no stimulus (constitutively activated)
Protocol: (§1) Inhibition of various cellular pathways known to be involved in malignancy was tested using the SelectScreen Cell-based Pathway Profiling GeneBLAzer™ cell signaling pathway specific CellSensor™ cell lines ((Thermo Fisher). The assay is based on a beta-lactamase reporter activity which is modulated and can be measured quantitatively and selectively with the LiveBLAzer™-FRET B/G Loading Substrate. SelectScreen Cell-Based Pathway Profiling Service uses XLfit from IDBS. The dose response curve is curve fit to model number 205 (sigmoidal dose-response model). Custom logic was built by Thermo Fisher for the data analysis tool to address the different compound characteristics that can be observed with functional assays.
Wnt/Beta-Catenin—LEF-TCF-bla HCT116—Inhibitor Screen, Constitutively Activated
LEF-TCF-bla HCT116 cells are thawed and resuspended in Assay Media (OPTI-MEM, 0.5% dialyzed FBS, 0.1 mM NEAA, 1 mM Sodium Pyruvate, 100 U/mL/100 μg/mL Pen/Strep) to a concentration of 312,500 cells/mL. 32 μL of cell suspension is added to each well of a 384-well Poly-D-Lysine assay plate. Cells in Assay Media are incubated for 16-24 hours in the plate at 37° C./5% CO2 in a humidified incubator. 4 μL of a 10× serial dilution of ICG-001 (control inhibitor starting concentration, 25,000 nM) or compounds are added to appropriate wells of the plate. […] The plate is read on a fluorescence plate reader.

[1] = molecular target: Toll-like Receptor (TLR4); assay: SelectScreen CellSensor pathway inhibition, Toll-like Receptor (TLR4); settings: NFkB-bla THP-1, stimulus LPS
Protocol: as §1
Toll-like Receptor (TLR4)—NFKB-bla THP-1—Inhibitor Screen, Activated by LPS
NFKB-bla THP-1 cells are thawed and resuspended in Assay Media (RPMI, 0.5% dialyzed FBS, 0.1 mM NEAA, 1 mM Sodium Pyruvate, 100 U/mL/[…] Pen/Strep) to a concentration of 625,000 cells/mL. 32 μL of cell suspension is added to each well of a 384-well TC-Treated assay plate. Cells in Assay Media are incubated for 16-24 hours in the plate at 37° C./5% CO2 in a humidified incubator. […] The plate is read on a fluorescence plate reader.

Oxidative Stress = assay: SelectScreen CellSensor pathway inhibition, Oxidative Stress; settings: ARE-bla HepG2, stimulus tBHQ
Protocol: as §1
Oxidative Stress—ARE-bla HepG2—Inhibitor Screen, Activated by tBHQ
ARE-bla HepG2 cells are thawed and resuspended in Assay Media (DMEM, 10% dialyzed FBS, 25 mM HEPES pH 7.3, 0.1 mM NEAA, 100 U/mL/100 μg/mL Pen/Strep) to a concentration of 375,000 cells/mL. 32 μL of cell suspension is added to each well of a 384-well Poly-D-Lysine assay plate. Cells in Assay Media are incubated for 16-24 hours in the plate at 37° C./5% CO2 in a humidified incubator. […] The plate is read on a fluorescence plate reader.

JAK/STAT = assay: SelectScreen CellSensor pathway inhibition, JAK/STAT; settings: ISRE-bla Jurkat, stimulus IFN-alpha
Protocol: as §1
JAK/STAT—ISRE-bla HEK 293T—Inhibitor Screen, Activated by IFN-Alpha
ISRE-bla HEK 293T cells are thawed and resuspended in Assay Media (OPTI-MEM, 0.5% dialyzed FBS, 0.1 mM NEAA, 1 mM Sodium Pyruvate, 100 U/mL/[…] Pen/Strep) to a concentration of 625,000 cells/mL. 32 μL of cell suspension is added to each well of a 384-well TC-Treated assay plate. Cells in Assay Media are incubated for 16-24 hours in the plate at 37° C./5% CO2 in a humidified incubator. […] 4 μL of 10× control activator IFN-alpha at the pre-determined EC80 concentration is added to wells containing the control inhibitor or compounds. […] The plate is read on a fluorescence plate reader.

- IC50 (Wnt/Beta-Catenin): 1830 nM
Molecule: O=C1[C@H](Cc2ccc(O)cc2)N2C(=O)CCN(C(=O)NCc3ccccc3)[C@H]2CN1Cc1cccc2ccccc12 [ICG-001, reference compound]

- IC50 [1]: 460 nM
- IC50 (Oxidative Stress): 1670 nM
Molecule: Cn1cc(C2=C(c3cn(CCCSC(=N)N)c4ccccc34)C(=O)NC2=O)c2ccccc21 [Ro-31-8220, reference compound]

Molecule: JAK Inhibitor I [reference compound]
- IC50 (JAK/STAT): 19 nM
